Tested on: female C.B-17 SCID mice injected with CD45RBhigh cells
Assay: CD4+ Inflammatory Bowel Disease (IBD) model in SCID mice
Assay type: in vivo, mouse
Experimental: In this murine model, female C.B-17 SCID mice are injected intraperitoneally (IP) with CD45RB^high cells, a subset of CD4^+ T cells obtained from normal BALB/c mice, to induce spontaneous chronic inflammation in the large intestine. Gross and histopathologic changes resulting from this treatment resemble those occurring in Crohn's disease and ulcerative colitis in humans.
On study day 0, Balb/C mice were terminated, and spleens were obtained for CD45RB^high cell isolation per the SCID IBD cell separation protocol. SCID mice were weighed and received intraperitoneal (IP) injections of the sorted cells (approx. 4×10^6 cells/ml, 100 μl/mouse injections). On study day 21, mice were weighed and randomized by body weight loss into treatment groups, and daily (QD), oral (PO) dosing was initiated. Dosing continued through study day 41, and mice were terminated on day 42.
For each animal, the entire colon (proximal and distal) was trimmed into 8 equally spaced pieces for processing and embedding. Sections were stained with hemotoxylin and eosin (H&E). For each H&E stained section, submucosal edema was quantitated by measuring the distance from the muscularis mucosa to the internal border of the outer muscle layer in a non tangential area thought to most represent the severity of this change. Mucosal thickness was also measured in a non-tangential area of the section that best represented the overall mucosal thickness. This parameter is indicative of gland elongation and mucosal hyperplasia.
Parameters that were scored using percent involvement included: (1) Colon glandular epithelial loss—this includes crypt epithelial as well as remaining gland epithelial loss; and (2) Colon Erosion—this reflects loss of surface epithelium and generally is associated with mucosal hemorrhage (reflective of the bleeding seen clinically and at necropsy).
The 4 important scored parameters (inflammation, glandular epithelial loss, erosion, hyperplasia) were ultimately summed to arrive at a sum of histopathology scores, which indicates the overall damage and would have a maximum score of 20.
Inflammatory cell infiltrates in the colonic mucosa were evaluated for approximate % of neutrophils in the total infiltrate using the criteria below.
This value was then multiplied by the inflammation score in an attempt to semiquantify relative PMN infiltration across sections and animals.

C[C@H](Nc1ncnc2[nH]cnc12)c1cc2cccc(Cl)c2c(=O)n1-c1ccccc1 [Compound 292]
Colon hyperplasia reduction (1 mg/kg PO QD, total colon): 32% | Mucosal thickness reduction (1 mg/kg PO QD, total colon): 31% | Colon weight reduction toward normal (1 mg/kg PO QD, vs vehicle): 34% | Colon inflammation reduction (3 mg/kg PO QD, distal colon): 42% | Gland loss reduction (3 mg/kg PO QD, distal colon): 52% | Hyperplasia reduction (3 mg/kg PO QD, distal colon): 61% | Mucosal thickness reduction (3 mg/kg PO QD, distal colon): 64% | Neutrophil score reduction (3 mg/kg PO QD, distal colon): 66% | PMN percent reduction (3 mg/kg PO QD, distal colon): 56% | Summed histopathology score reduction (3 mg/kg PO QD, distal colon): 52% | Colon inflammation reduction (3 mg/kg PO QD, proximal colon): 19% | Gland loss reduction (3 mg/kg PO QD, proximal colon): 24% | Hyperplasia reduction (3 mg/kg PO QD, proximal colon): 37% | Mucosal thickness reduction (3 mg/kg PO QD, proximal colon): 36% | Neutrophils score reduction (3 mg/kg PO QD, proximal colon): 43% | PMN percent reduction (3 mg/kg PO QD, proximal colon): 39% | Summed histopathology score reduction (3 mg/kg PO QD, proximal colon): 28% | Colon hyperplasia reduction (3 mg/kg PO QD, total colon): 49% | Colon inflammation reduction (3 mg/kg PO QD, total colon): 30% | Gland loss reduction (3 mg/kg PO QD, total colon): 38% | Mucosal thickness reduction (3 mg/kg PO QD, total colon): 51% | Neutrophil score reduction (3 mg/kg PO QD, total colon): 54% | PMN percent reduction (3 mg/kg PO QD, total colon): 47% | Summed histopathology score reduction (3 mg/kg PO QD, total colon): 40% | Colon weight reduction toward normal (3 mg/kg PO QD, vs vehicle): 50% | Colon inflammation reduction (10 mg/kg PO QD, distal colon): 28% | Colon mucosal thickness reduction (10 mg/kg PO QD, distal colon): 46% | Gland loss reduction (10 mg/kg PO QD, distal colon): 39% | Hyperplasia reduction (10 mg/kg PO QD, distal colon): 46% | Summed histopathology score reduction (10 mg/kg PO QD, distal colon): 38% | Colon edema reduction (10 mg/kg PO QD, proximal colon): 68% | Colon inflammation reduction (10 mg/kg PO QD, proximal colon): 17% | Erosion reduction (10 mg/kg PO QD, proximal colon): 94% | Gland loss reduction (10 mg/kg PO QD, proximal colon): 26% | Hyperplasia reduction (10 mg/kg PO QD, proximal colon): 45% | Mucosal thickness reduction (10 mg/kg PO QD, proximal colon): 43% | Neutrophil score reduction (10 mg/kg PO QD, proximal colon): 45% | PMN percent reduction (10 mg/kg PO QD, proximal colon): 37% | Summed histopathology score reduction (10 mg/kg PO QD, proximal colon): 31% | Absolute body weight (10 mg/kg PO QD, significant days 27-31, 35, 39, vs vehicle): significantly (by ANOVA) increased | Colon edema reduction (10 mg/kg PO QD, total colon): 60% | Colon hyperplasia reduction (10 mg/kg PO QD, total colon): 46% | Colon inflammation reduction (10 mg/kg PO QD, total colon): 24% | Gland loss reduction (10 mg/kg PO QD, total colon): 33% | Mucosal thickness reduction (10 mg/kg PO QD, total colon): 45% | Neutrophil score reduction (10 mg/kg PO QD, total colon): 44% | PMN percent reduction (10 mg/kg PO QD, total colon): 37% | Summed histopathology score reduction (10 mg/kg PO QD, total colon): 35% | Colon weight reduction toward normal (10 mg/kg PO QD, vs vehicle): 51%
